# In publication PMC7104388 (Journal of medicinal chemistry, 2019):
# pEC50, pIC50: −log10 of the molar value.
# Assays:
# P. falciparum Dd2 = assay: Parasite growth inhibition, parental Dd2; conditions: Plasmodium falciparum
# [1] = test system: wild-type Pf Dd2 parasites; assay: Dual drug assay and isobologram analysis, 72 h; assay type: cell-based, P. falciparum; conditions: WHZ-04 in combination with WLW-VS
# PAMPA permeability = assay type: in vitro ADME; conditions: pH 7.4
# Pf 3D7 = assay: Parasite growth inhibition, erythrocytic stage, SYBR Green 72 h
# Pf20S β5 [2] = molecular target: T1, Pf20S β5 (Plasmodium falciparum, UniProt A0A5K1K7U1+Q8IJT1)
# T1 sequence (Q8IJT1 61-271): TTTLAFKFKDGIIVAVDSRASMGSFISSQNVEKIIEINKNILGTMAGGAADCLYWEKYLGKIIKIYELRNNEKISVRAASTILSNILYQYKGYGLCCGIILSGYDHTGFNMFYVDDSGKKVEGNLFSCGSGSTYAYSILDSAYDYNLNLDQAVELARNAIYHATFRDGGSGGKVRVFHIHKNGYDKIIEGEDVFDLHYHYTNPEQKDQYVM
# T1 sequence (A0A5K1K7U1 29-240): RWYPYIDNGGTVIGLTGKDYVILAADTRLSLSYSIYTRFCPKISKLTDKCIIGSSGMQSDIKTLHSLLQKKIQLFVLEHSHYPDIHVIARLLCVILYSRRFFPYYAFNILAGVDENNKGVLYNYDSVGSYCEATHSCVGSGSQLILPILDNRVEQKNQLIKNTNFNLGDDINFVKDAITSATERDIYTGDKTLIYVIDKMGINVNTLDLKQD
# [3] = test system: P. falciparum clinical isolates (Uganda); assay: Ex vivo 72-h growth inhibition of P. falciparum field isolates in Uganda; assay type: cell-based; conditions: Plasmodium falciparum, read-out: EC50 range against Ugandan isolates
# Pf20S β5 [4] = molecular target: T1, Pf20S β5; assay: Pf20S active subunit labeling by MV151; assay type: binding, P. falciparum; conditions: Figure 2B
# i-20S β5i = i-20S β5i (Homo sapiens, UniProt P20618+P28062); assay: human i-20S β5i enzyme inhibition; assay type: biochemical
# c-20S β5c = c-20S β5c (Homo sapiens, UniProt P20618+P28074); assay: human c-20S β5c enzyme inhibition; assay type: biochemical
# Pf20S β5 [5] = molecular target: T1, Pf20S β5; assay: biochemical; conditions: IC50 Pf20S β5, Table 3; mean of at least three independent experiments
smiles,measurement,setting,value
Cc1cc(C(=O)N[C@@H](CC(=O)NC(C)(C)C)C(=O)NCCNC(=O)c2cccc(-n3cccn3)c2)no1 [TDI4258],EC90,P. falciparum Dd2,60 nM
Cc1ccc(S(=O)(=O)N[C@@H](CC(=O)NC(C)(C)C)C(=O)NCCNC(=O)c2ccccc2)cc1 [WHZ-04],type of interaction by isobologram analysis,[1],synergistic to additive
same,∑FIC,"[1]; 72-h dual drug assay, three independent experiments",0.52 ± 0.13
same,PAMPA @ pH7.4,PAMPA permeability,137 nm/sec
Cc1ccc(S(=O)(=O)N[C@@H](CC(=O)NC(C)(C)C)C(=O)NCCNC(=O)c2ccccc2F)cc1 [WHZ-05],PAMPA @ pH7.4,PAMPA permeability,105 nm/sec
same,fold decrease in activity against cultured parasites compared to PKS21221,Pf 3D7,4.7 fold
Cc1ccc(S(=O)(=O)N[C@@H](CC(=O)NC(C)(C)C)C(=O)NCCNC(=O)c2ccc(F)cc2)cc1 [WHZ-07],fold reduction in potency relative to WHZ-04,Pf20S β5 [2],6 fold
Cc1ccc(S(=O)(=O)N[C@@H](CC(=O)NC(C)(C)C)C(=O)NCCNC(=O)c2ccccc2Cl)cc1 [WHZ-08],fold reduction in potency relative to WHZ-04,Pf20S β5 [2],10 fold
COc1cccc(C(=O)NCCNC(=O)[C@H](CC(=O)NC(C)(C)C)NS(=O)(=O)c2ccc(C)cc2)c1 [WHZ-12],fold enhanced potency relative to WHZ-11,Pf20S β5 [2],2.5 fold
same,PAMPA @ pH7.4,PAMPA permeability,159 nm/sec
C#Cc1cccc(C(=O)NCCNC(=O)[C@H](CC(=O)NC(C)(C)C)NS(=O)(=O)c2ccc(C)cc2)c1 [WHZ-13],fold enhanced potency relative to WHZ-11,Pf20S β5 [2],4.8 fold
same,PAMPA @ pH7.4,PAMPA permeability,203 nm/sec
same,pEC50,[3],7.80 to 8.36
same,inhibition of labeling of Pf20S β5 by MV151,Pf20S β5 [4],only inhibited the labeling of the Pf20S β5
Cc1ccc(S(=O)(=O)N[C@@H](CC(=O)NC(C)(C)C)C(=O)NCCNC(=O)c2c(O)cccc2F)cc1 [WHZ-20],pIC50,i-20S β5i,5.00
same,"fold of selectivity, β5i over Pf20S β5",i-20S β5i; in parenthesis in Table 3,2.5 fold
same,pIC50,c-20S β5c,< 4.00
same,"fold of selectivity, β5c over Pf20S β5",c-20S β5c; in parenthesis in Table 3,> 24.7 fold
same,pIC50,Pf20S β5 [5],5.39
"CCN(CC)CCCC(C)Nc1ccnc2cc(Cl)ccc12 (centres unmarked) [chloroquine, reference compound]",pEC50,[3],7.57 to 8.35
